Measurements reported in paper PMC9872612, “Mouse α-Defensins: Structural and Functional Analysis of the 17 Cryptdin Isoforms Identified from a Single Jejunal Crypt” (Infection and Immunity, 2022).
Values joined by “and” are separate entries in the source; they are usually repeats but may differ in a detail not shown here. Equal values may be shown once. Positions of bridges follow the written chain, without caps; N, C: chain ends. No end group written: not given here.

Assays:
[1] = dynamic light scattering (DLS) particle size / self-association in solution; assay type: physicochemical; details: DLS number distribution, equilibrated 120 s, room temperature, Malvern Zetasizer, representative
Description: For verification, we subjected the four cryptdin peptides at 10 μM to dynamic light scattering (DLS) analysis in phosphate saline buffers at pH 7.4 and pH 3.0. […] However, the particle sizes of Crp1 and Crp11 shifted dramatically at the elevated pH, to ~200 nm and >1,000 nm, respectively, indicative of formation of high-ordered soluble aggregates in solution. These DLS data are in qualitative agreement with the SPR findings.
Of note, Cryp1 and Cryp11 are among the weakest cryptdins against E. coli and S. aureus, whereas Cryp4 and Cryp14 are potently bactericidal. This phenomenon raised an intriguing possibility that the ability of cryptdins to self-associate in solution could perhaps inform their antibacterial activity.
Dynamic light scattering (DLS) is a technique that can be used to measure the hydrodynamic diameter of proteins in solution. The principle of this technique lies in the fact that the apparent size of a protein molecule is inversely related to the speed at which it diffuses in a constant, random Brownian motion; size information can be derived mathematically through deconvolution algorithms once the rate at which the intensity of scattered laser light fluctuates as a function of time is determined by DLS ([93]). […]

[2] = test system: E. coli ATCC 25922; test: virtual colony count (vCC) bactericidal assay, E. coli; assay type: cell-based, Escherichia coli
Description: (§1) All cryptdins were subjected to a virtual colony count assay (vCC) we have previously developed ([67]), in which E. coli ATCC 25922 and S. aureus ATCC 29213 are exposed to a 2-fold serial dilution of cryptdin for 2 h in 10 mM sodium phosphate buffer (pH 7.4), before bacterial growth in the presence of Mueller-Hinton broth is monitored spectrophotometrically at 650 nm for a period of 12 h. The dose-dependent killing of E. coli and S. aureus by all 17 cryptdins is shown as bacterial survival curves in Fig. 6. The virtual lethal doses (vLDs) of cryptdins at 50%, 10%, 1% and 0.1% bacterial survival (or the vLD50, vLD90, vLD99, and vLD99.9 values) are tabulated in Table 1. The bactericidal activity of the Crp1 subclass of cryptdins is highly variable despite a high degree of sequence identity, with Crp1, Crp6, Crp11, and Crp16 being the weakest against both strains and Crp3, Crp8 to Crp10, Crp13, Crp14, and Crp17 being the strongest. The vLD50, vLD90, vLD99 and vLD99.9 values for Crp11 to E. coli differ from those for Crp14 by 3.4-, 7.0-, 11.8-, and 12.7-fold, respectively; for comparison, the vLD values for Crp11 to S. aureus are 3.1-, 5.0-, 6.8-, and 8.1-fold versus those for Crp10, respectively. Overall, S. aureus appears more susceptible to cryptdin killing than E. coli.
(§2) Antimicrobial assays against E. coli ATCC 25922 and S. aureus ATCC 29213 were conducted using a published 96-well turbidimetric method called “virtual colony count” ([67]). Briefly, a 2-fold dilution series of cryptdin, ranging from 1 to 256 μg/mL in 10 mM sodium phosphate (pH 7.4), was incubated at 37°C for 2 h with E. coli or S. aureus at 1 × 10^6 CFU/mL (a total volume of 100 μL), followed by the addition of 100 μL of twice-concentrated Mueller-Hinton broth (MHB). In addition to […] controls containing no cryptdin, a negative control termed “input” consisted of a portion of the same cell suspension kept on ice during the initial 2 h of incubation and added to the microplate just before addition of 100 μL of twice-concentrated MHB. Kinetic measurements of bacterial growth at 37°C were taken every 5 min over the next 12 h spectrophotometrically at 650 nm using a Tecan Spark plate reader. Data analysis utilized a Visual Basic script to automate the determination of the time necessary for each growth curve to reach a threshold change in optical density at 650 nm of 0.02 (ΔOD650), as previously described ([67]). Since the threshold times are inversely and linearly dependent on the logarithmic concentration of bacteria ([67]), survival data can be readily inferred from these calibration curves established in the absence of cryptdin. The rate of survival was calculated as the number of CFU of cryptdin-treated cells/number of CFU of control cells.

[3] = test system: S. aureus ATCC 29213; test: virtual colony count (vCC) bactericidal assay, S. aureus; assay type: cell-based, Staphylococcus aureus
Description: as §1, §2

[4] = test system: same cryptdin peptide immobilized on a CM5 sensor chip; test: surface plasmon resonance self-association of cryptdins; assay type: binding, mouse; details: 15.6-2,000 nM analyte over 400 to 500 RU of the same peptide on CM5 chip, 25°C, 10 mM HEPES, 150 mM NaCl, 3 mM EDTA, surfactant P20, pH 7.4; additional 150 mM NaCl for Crp1 and Crp11; Kd unattainable
Description: We examined Crp1, Crp4, Crp11, and Crp14 for their ability to self-associate at 25°C in 10 mM HEPES, 150 mM NaCl, 3 mM EDTA, 0.005% surfactant P20 (pH 7.4) using surface plasmon resonance (SPR) techniques. […] Due to the heterogenetic nature of defensin self-association and the lack of an appropriate mathematic model for data analysis, an accurate measurement of thermodynamic parameters such as Kd was unattainable.
FIG 10 Representative association and dissociation kinetics of cryptdins analyzed by surface plasmon resonance. Cryptdins in a 2-fold dilution series at concentrations ranging from 15.625 to 2000 nM were analyzed on self-immobilized sensor chips with resonance units (RUs) of 404 for Crp1 (A), 541 for Crp4 (B), 458 for Crp11 (C), 488 for Crp14 (D). To suppress nonspecific electrostatic interactions, an additional 150 mM NaCl was added to the running buffer for Crp1 and Crp11.
Surface plasmon resonance (SPR) experiments were performed, as described previously ([80]), on a BIAcore T200 system, at 25°C, in HBS-EP buffer (10 mM HEPES, 150 mM NaCl, 3 mM EDTA, […] surfactant P20 [pH 7.4]), with or without additional 150 mM NaCl. […] Analytes in a 2-fold dilution series at concentrations varying from 15.625 to 2,000 nM were injected into the flow cells at 30 μL/min in the running buffer, and association and dissociation assessed for 5 and 10 min, respectively. […]

[5] = virtual lethal dose killing 90% of input cells, 2 h at 37°C in 10 mM sodium phosphate pH 7.4, three independent assays

Substance: Crp1: mouse α-defensin cryptdin isoform 1, chemically synthesized and oxidatively folded, three disulfides (LRDLVCYCRSRGCKGRERMNGTCRKGHLLYTLCCR; disulfide 13-33, 8-23, 6-34; not fully specified; UniProt P11477 59-93, looked up)
- particle size in diameter by DLS, pH 3.0 ([1]; 10 μM peptide in phosphate saline buffer pH 3.0, filtered 0.22 μm disc membrane): around 1 nm
- particle size in diameter by DLS, pH 7.4 ([1]; 10 μM peptide in phosphate saline buffer pH 7.4, filtered 0.22 μM disc membrane): ~ 200 nm
- reduction of E. coli survival ([2]; peptide at 256 μg/mL, vCC): 5 orders of magnitude
- Mean vLD ± SD, E. coli ATCC 25922, vLD50 ([2]; virtual lethal dose killing 50% of input cells, 2-fold dilutions 1-256 μg/mL, 2 h at 37°C in 10 mM sodium phosphate pH 7.4, 1 × 10^6 CFU/mL, then MHB growth 12 h read at 650 nm, three independent assays): 5.9 ± 0.3 µg/mL
- Mean vLD ± SD, E. coli ATCC 25922, vLD90 [2, 5]: 13.4 ± 0.6 µg/mL
- Mean vLD ± SD, E. coli ATCC 25922, vLD99 ([2]; virtual lethal dose killing 99% of input cells, 2 h at 37°C in 10 mM sodium phosphate pH 7.4, three independent assays, LOD = limit of detection): 25.4 ± 2.3 µg/mL
- Mean vLD ± SD, E. coli ATCC 25922, vLD99.9 ([2]; virtual lethal dose killing 99.9% of input cells, 2 h at 37°C in 10 mM sodium phosphate pH 7.4, three independent assays, LOD = limit of detection): 41.9 ± 4.8 µg/mL
- concentration at which S. aureus was completely killed / growth eliminated ([3]; vCC survival curves, 2-fold dilution series, mean of triplicate experiments): 32 µg/mL
- Mean vLD ± SD, S. aureus ATCC 29213, vLD50 ([3]; virtual lethal dose killing 50% of input cells, 2 h at 37°C in 10 mM sodium phosphate pH 7.4, 1 × 10^6 CFU/mL, three independent assays): 3.9 ± 0.6 µg/mL
- Mean vLD ± SD, S. aureus ATCC 29213, vLD90 [3, 5]: 6.1 ± 0.5 µg/mL
- Mean vLD ± SD, S. aureus ATCC 29213, vLD99 ([3]; virtual lethal dose killing 99% of input cells, 2 h at 37°C in 10 mM sodium phosphate pH 7.4, three independent assays): 9.1 ± 0.3 µg/mL
- Mean vLD ± SD, S. aureus ATCC 29213, vLD99.9 ([3]; virtual lethal dose killing 99.9% of input cells, 2 h at 37°C in 10 mM sodium phosphate pH 7.4, three independent assays): 11.9 µg/mL and 11.9 ± 0.5 µg/mL
- self-association/dissociation kinetics by SPR [4]: slow association, followed by slow dissociation kinetics
